{"source": "paper PMC10406450", "about": "(Frontiers in Endocrinology, 2023)", "test_system": "CHO-hGLP-1R cells", "assay": "Cell viability assay (resazurin)", "assay_type": "cell-based, Chinese hamster", "details": "48 h treatment, then 5 h resazurin dye, fluorescence 590 nm, concentrations up to 1000-fold above the EC50, 3 independent experiments", "procedure": "CHO-hGLP-1R cells described above were plated at 10 000 cells per well in 96-well black clear-bottom poly-d-lysine-coated microtiter plates (Corning, USA). Growth medium comprised DMEM supplemented with 10% FBS (Sigma-Aldrich). […] Fluorescence emission was measured at 590 nm (560 nm excitation) using an Envision plate reader (Perkin Elmer, USA).", "data": [{"compound": "CN[C@@H]1C[C@H]2O[C@@](C)([C@@H]1OC)n1c3ccccc3c3c4c(c5c6ccccc6n2c5c31)C(=O)NC4", "note": "[staurosporine]", "values": [{"measurement": "cytotoxicity (cell viability)", "result": "expected effect on loss of cell viability"}]}]}
